# Values of other authors in US11980627B2, “Triple pharmaceutical composition for proteinaceous infection” (priority 2019, dated 2024).
# Tests used:
# AD = settings: in vivo
# AD patients = settings: twelve months' treatment, alone or in combination
# patients with AD = settings: human, in vivo
# soluble amyloid protein = settings: intravenous
# soluble amyloid protein, sequence (P05067 672-711 limits assumed): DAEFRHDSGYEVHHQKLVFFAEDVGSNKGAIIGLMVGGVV
compound,measurement,setting,value
CC(=O)Oc1ccccc1C(=O)O [aspirin],effects on AD,AD,not found to have beneficial effects
CC(=O)Nc1ccc(O)cc1 [Acetaminophen],effects on AD,AD,not found to have beneficial effects
CO[C@H]1/C=C/O[C@@]2(C)Oc3c(C)c(O)c4c(O)c(c(/C=N/N5CCN(C)CC5)c(O)c4c3C2=O)NC(=O)/C(C)=C\C=C\[C@H](C)[C@H](O)[C@@H](C)[C@@H](O)[C@@H](C)[C@H](OC(C)=O)[C@@H]1C [rifampin],effects on cognition or function in AD,AD patients,no beneficial effects
COc1ccc2cc([C@H](C)C(=O)O)ccc2c1 [Naproxen],cognitive function in patients with AD,patients with AD,did not improve
Solanezumab: intravenous amyloid immunotherapy; humanized monoclonal antibody to soluble amyloid protein,outcome of amyloid immunotherapy in AD,soluble amyloid protein,failure
